Entries after “also recorded” stand apart in the source; their conditions may differ. Non-standard residues stand in square brackets, D forms with d. Residues, ends and D or L forms follow the SMILES beside them. No end group written: not given here. NMeF = CN[C@@H](Cc1ccccc1)C(=O)O; NMeL = CN[C@@H](CC(C)C)C(=O)O; NMeV = CN[C@H](C(=O)O)C(C)C; Nle = CCCC[C@H](N)C(=O)O
Assays:
IAPP = molecular target: T1, IAPP (Homo sapiens, UniProt P10997); test: MTT reduction assay of IAPP-mediated cell damage in RIN5fm cells; format: cell-based; details: for Effect on formation of cytotoxic IAPP assemblies (MTT reduction): aged (24 h or 7 days) IAPP/peptide 1/2 solutions; for IC50: read-out: IC50 (±SD) of inhibitory effects of ACMs on IAPP-mediated cell damage
T1 construct: made in house; host or cells: chemical synthesis (Fmoc-SPPS), air-oxidised, RP-HPLC purified
T1 sequence (P10997 34-70 limits assumed): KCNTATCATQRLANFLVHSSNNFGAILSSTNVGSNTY
Experimental: Briefly, cells were cultivated and platted in 96-well plates. Aliquots of solutions used for the ThT binding assays (see “ThT binding assays”) were diluted with cell medium at the indicated incubation time points (24 h or 7 days) and added to the cells at the indicated final concentrations. Following incubation with the cells for ˜20 h (37° C., humidified atmosphere, 5% CO2) cell damage was assessed by measuring cellular MTI reduction. IC50 values were determined.

Aβ42 [1] = molecular target: T2, Aβ42 (Homo sapiens, UniProt P05067); test: cell-based; details: read-out: IC50 (±SD) of inhibitory effects of ACMs on Aβ42-mediated cell damage
T2 construct: the 40(42)-residue peptide Aβ40(42); made in house; host or cells: chemical synthesis (Fmoc-SPPS), monomer isolated by SEC
Experimental: Following incubation with the cells for ˜20 h (37° C., humidified atmosphere, 5% CO2), cell damage was assessed by measuring cellular MTT reduction.
Solutions were aged for 1.5 h (37° C., shaking 500 rpm). Aliquots were diluted with cell medium, incubated with PC12 cells at the indicated final concentrations for ˜20 h and cellular MTT reduction was measured as above.

[2] = tested on: Aβ42-mediated LTP impairment; test: Hippocampal long-term potentiation (LTP) measurements in murine hippocampal slices ex vivo; design: species or system mouse; details: Aβ42 oligomers 50 nM, 24 h aged, 30° C.; oligomers/ACM 1/10
Experimental: LTP measurements were performed. Briefly, sagittal hippocampal slices (350 μm) were obtained from C57BL/6N male mice (6-8 weeks) in ice-cold Ringer solution bubbled with a mixture of 95% O2 and 5% CO2 and according to protocols approved by the ethical committee on animal care and use of the government of Bavaria Germany. Extracellular recordings were performed using artificial cerebrospinal fluid (ACSF)-filled glass microelectrodes (2-3 MW) at RT. […] Field excitatory postsynaptic potentials (fEPSPs) were evoked in the hippocampal CA1 dendritic region via two independent inputs by stimulating the Schaffer collateral commissural pathway (Scep). For LTP induction, high-frequency stimulation (HFS; 100 Hz/100 pulses) conditioning pulses were delivered to the same Seep inputs. Both stimulating electrodes were used to utilize the input specificity of LTP, thus allowing for the measurement of an internal control within the same slice. […] Responses were measured for 60 min after HFS. […] Data analysis by 1-way ANOVA and Bonferroni's multiple comparison test.

[3] = tested on: cultured murine BV2 microglia; test: Phagocytosis of Aβ42 species with or without ACM; format: cell-based, mouse; details: 1/1, co-incubation 2 h
Experimental: Briefly, BV2 cells were maintained in GlutaMAX-supplemented RPMI1640 medium containing 10% FBS and 1% penicillin/streptomycin on poly-L-ornithine-coated flasks. For the phagocytosis assay, BV2 cells were seeded into 24-well plates containing coverslips in serum-free RPMI1640-GlutaMAX and further incubated for 24 h (5% CO2, 37° C.) to reach 10000 cells/well. Primary BMDMs were obtained from bone-marrow monocytes isolated from wildtype C57BL/6 mice, plated in 24-well plates at a density of 10000cells/well, and differentiated with L929 cell-conditioned medium (RPMI1640, 10% FBS, 1% penicillin/streptomycin) for 7 days. Thereafter, cells were incubated with aged peptide solutions at 37° C. for 6 h. […]
Following incubation of the cells with the peptides, supernatants were removed and cells on the coverslips were washed 5 times with ice-cold 1×PBS, fixed with 4% paraformaldehyde, washed with 1×PBS, permeabilized with 0.2% Triton-X 100, and rinsed three times with cold 1×PBS. […] Images were acquired using a Leica DMi8 fluorescence microscope. The percentage of cells that had taken up peptides was calculated by dividing the number of BV2 cells or BMDMs that phagocytosed TAMRA-labeled peptide by the total cell count, multiplied by 100. Significance was analyzed by unpaired student's t-test.

Aβ42 [4] = molecular target: T2, Aβ42; test: ThT binding assay of Aβ42 fibrillogenesis (self-assembly, seeding, cross-seeding); format: biochemical; details: Aβ42 5 μM, Aβ42/peptide 1/1
Experimental: Aβ42 fibrillogenesis-related studies. […] Peptide incubations were performed in the presence of ThT in 96-well black MTPs (FluoroNunc, Thermo Fisher Scientific). […] Values of seeds or buffer alone were subtracted from the data in self-/cross-seeding assays; all other data shown are raw data except for data in FIG. 27b which were normalized).
Incubations (37° C.) and determination of ThT fluorescence were performed as for all other Aβ42-related studies.

Molecule	Effect of addition to preformed fIAPP on fIAPP cytotoxicity (MTT reduction) (IAPP; RIN5fm cells, ACM 33 μM added to fIAPP […], 1 day, fIAPP 500 nM)	Effect on formation of cytotoxic IAPP assemblies (MTT reduction) (IAPP; RIN5fm cells)	IC50 (IAPP) [nM]	IC50 (Aβ42 [1]) [nM]	Effect on LTP impairment mediated by preformed Aβ42 oligomers [2]	Effect of addition to TAMRA-oAβ42 on Aβ42 phagocytosis [3]	Effect on Aβ42 fibrillogenesis / amyloid self-assembly (ThT binding) (Aβ42 [4])
CCCC[C@H](NC(=O)[C@H](CC(C)C)NC(=O)CNC(=O)[C@@H](NC(=O)[C@@H](NC(=O)[C@H](C)NC(=O)CNC(=O)[C@H](CCCCN)NC(=O)[C@H](CC(N)=O)NC(=O)[C@H](Cc1ccccc1)NC(=O)[C@H](Cc1ccccc1)NC(=O)[C@H](Cc1ccccc1)NC(=O)[C@H](CC(=O)O)NC(=O)[C@H](CCC(=O)O)NC(=O)[C@H](C)NC(=O)[C@H](Cc1ccccc1)N(C)C(=O)[C@H](Cc1ccccc1)NC(=O)[C@H](C(C)C)N(C)C(=O)[C@H](CC(C)C)NC(=O)[C@H](CCCCN)NC(=O)[C@@H](N)CCC(N)=O)[C@@H](C)CC)[C@@H](C)CC)C(=O)N[C@H](C(=O)NCC(=O)NCC(=O)N[C@H](C(=O)N[C@H](C(=O)O)C(C)C)C(C)C)C(C)C [F3-VF] (H-QKL[NMeV]F[NMeF]AEDFFFNKGAIIGL[Nle]VGGVV-OH)	does not affect fIAPP cytotoxicity	fully suppressed; also recorded: suppress formation of toxic IAPP assemblies	78.5	1030			
CCCC[C@H](NC(=O)[C@H](CC(C)C)NC(=O)CNC(=O)[C@@H](NC(=O)[C@@H](NC(=O)[C@H](C)NC(=O)CNC(=O)[C@H](CCCCN)NC(=O)[C@H](CC(N)=O)NC(=O)[C@H](Cc1ccccc1)NC(=O)[C@H](Cc1ccccc1)NC(=O)[C@H](Cc1ccccc1)NC(=O)[C@H](CC(=O)O)NC(=O)[C@H](CCC(=O)O)NC(=O)[C@H](C)NC(=O)[C@H](Cc1ccccc1)NC(=O)[C@H](Cc1ccccc1)N(C)C(=O)[C@@H](NC(=O)[C@H](CC(C)C)N(C)C(=O)[C@H](CCCCN)NC(=O)[C@@H](N)CCC(N)=O)C(C)C)[C@@H](C)CC)[C@@H](C)CC)C(=O)N[C@H](C(=O)NCC(=O)NCC(=O)N[C@H](C(=O)N[C@H](C(=O)O)C(C)C)C(C)C)C(C)C [F3-LF] (H-QK[NMeL]V[NMeF]FAEDFFFNKGAIIGL[Nle]VGGVV-OH)		fully suppressed; also recorded: suppress formation of toxic IAPP assemblies	41.7	262	suppress LTP impairment mediated by preformed Aβ42 oligomers		
CCCC[C@H](NC(=O)[C@H](CC(C)C)NC(=O)CNC(=O)[C@@H](NC(=O)[C@@H](NC(=O)[C@H](C)NC(=O)CNC(=O)[C@H](CCCCN)NC(=O)[C@H](CC(N)=O)NC(=O)[C@H](CC(C)C)NC(=O)[C@H](CC(C)C)NC(=O)[C@H](CC(C)C)NC(=O)[C@H](CC(=O)O)NC(=O)[C@H](CCC(=O)O)NC(=O)[C@H](C)NC(=O)[C@H](Cc1ccccc1)N(C)C(=O)[C@H](Cc1ccccc1)NC(=O)[C@H](C(C)C)N(C)C(=O)[C@H](CC(C)C)NC(=O)[C@H](CCCCN)NC(=O)[C@@H](N)CCC(N)=O)[C@@H](C)CC)[C@@H](C)CC)C(=O)N[C@H](C(=O)NCC(=O)NCC(=O)N[C@H](C(=O)N[C@H](C(=O)O)C(C)C)C(C)C)C(C)C [L3-VF] (H-QKL[NMeV]F[NMeF]AEDLLLNKGAIIGL[Nle]VGGVV-OH)		fully suppressed; also recorded: suppress formation of toxic IAPP assemblies	113	261	suppress LTP impairment mediated by preformed Aβ42 oligomers	increased Aβ42 phagocytosis	
Nle3-LVFF: 4-fold N-methylated Nle3-VF analog; N-methylation of all four residues of segment LVFF (QK[NMeL][NMeV][NMeF][NMeF]AED[Nle][Nle][Nle]NKGAIIGL[Nle]VGGVV)							blocks amyloid self-assembly of Aβ42
CCCC[C@H](NC(=O)[C@H](CC(=O)O)NC(=O)[C@H](CCC(=O)O)NC(=O)[C@H](C)NC(=O)[C@H](Cc1ccccc1)NC(=O)[C@H](Cc1ccccc1)N(C)C(=O)[C@@H](NC(=O)[C@H](CC(C)C)N(C)C(=O)[C@H](CCCCN)NC(=O)[C@@H](N)CCC(N)=O)C(C)C)C(=O)N[C@@H](CCCC)C(=O)N[C@@H](CCCC)C(=O)N[C@@H](CC(N)=O)C(=O)N[C@@H](CCCCN)C(=O)NCC(=O)N[C@@H](C)C(=O)N[C@H](C(=O)N[C@H](C(=O)NCC(=O)N[C@@H](CC(C)C)C(=O)N[C@@H](CCCC)C(=O)N[C@H](C(=O)NCC(=O)NCC(=O)N[C@H](C(=O)N[C@H](C(=O)O)C(C)C)C(C)C)C(C)C)[C@@H](C)CC)[C@@H](C)CC [Nle3-LF] (H-QK[NMeL]V[NMeF]FAED[Nle][Nle][Nle]NKGAIIGL[Nle]VGGVV-OH)		fully suppressed; also recorded: suppress formation of toxic IAPP assemblies	82.1				
CCCC[C@H](NC(=O)[C@H](CC(C)C)NC(=O)CNC(=O)[C@@H](NC(=O)[C@@H](NC(=O)[C@H](C)NC(=O)CNC(=O)[C@H](CCCCN)NC(=O)[C@H](CC(N)=O)NC(=O)[C@H](CC(C)C)NC(=O)[C@H](CC(C)C)NC(=O)[C@H](CC(C)C)NC(=O)[C@H](CC(=O)O)NC(=O)[C@H](CCC(=O)O)NC(=O)[C@H](C)NC(=O)[C@H](Cc1ccccc1)NC(=O)[C@H](Cc1ccccc1)N(C)C(=O)[C@@H](NC(=O)[C@H](CC(C)C)N(C)C(=O)[C@H](CCCCN)NC(=O)[C@@H](N)CCC(N)=O)C(C)C)[C@@H](C)CC)[C@@H](C)CC)C(=O)N[C@H](C(=O)NCC(=O)NCC(=O)N[C@H](C(=O)N[C@H](C(=O)O)C(C)C)C(C)C)C(C)C [L3-LF] (H-QK[NMeL]V[NMeF]FAEDLLLNKGAIIGL[Nle]VGGVV-OH)		fully suppressed; also recorded: suppress formation of toxic IAPP assemblies	133				
